Laboratory results: article PMC8213057, “Targeting ALK2: An Open Science Approach to Developing Therapeutics for the Treatment of Diffuse Intrinsic Pontine Glioma” (Journal of Medicinal Chemistry, 2020)
Where “and” joins values, the source holds several entries; their conditions need not be identical. Identical values can stand only once.

Assays:
[1] = biological target: CLK1 (Homo sapiens, UniProt P49759); details: 1 μM; Run 1, Run 2
[2] = biological target: PKAcb (Homo sapiens, UniProt P22694); assay: biochemical; details: read-out: % enzyme activity, 1 μM; Run 1, Run 2
[3] = tested on: BMPR2
[4] = biological target: CDK2/cyclin O (Homo sapiens, UniProt P24941); details: 1 μM; Run 1, Run 2
[5] = biological target: T1, EPHB1 (Homo sapiens, UniProt P54762); details: 1 μM; Run 1, Run 2
T1 sequence (P54762 18-984): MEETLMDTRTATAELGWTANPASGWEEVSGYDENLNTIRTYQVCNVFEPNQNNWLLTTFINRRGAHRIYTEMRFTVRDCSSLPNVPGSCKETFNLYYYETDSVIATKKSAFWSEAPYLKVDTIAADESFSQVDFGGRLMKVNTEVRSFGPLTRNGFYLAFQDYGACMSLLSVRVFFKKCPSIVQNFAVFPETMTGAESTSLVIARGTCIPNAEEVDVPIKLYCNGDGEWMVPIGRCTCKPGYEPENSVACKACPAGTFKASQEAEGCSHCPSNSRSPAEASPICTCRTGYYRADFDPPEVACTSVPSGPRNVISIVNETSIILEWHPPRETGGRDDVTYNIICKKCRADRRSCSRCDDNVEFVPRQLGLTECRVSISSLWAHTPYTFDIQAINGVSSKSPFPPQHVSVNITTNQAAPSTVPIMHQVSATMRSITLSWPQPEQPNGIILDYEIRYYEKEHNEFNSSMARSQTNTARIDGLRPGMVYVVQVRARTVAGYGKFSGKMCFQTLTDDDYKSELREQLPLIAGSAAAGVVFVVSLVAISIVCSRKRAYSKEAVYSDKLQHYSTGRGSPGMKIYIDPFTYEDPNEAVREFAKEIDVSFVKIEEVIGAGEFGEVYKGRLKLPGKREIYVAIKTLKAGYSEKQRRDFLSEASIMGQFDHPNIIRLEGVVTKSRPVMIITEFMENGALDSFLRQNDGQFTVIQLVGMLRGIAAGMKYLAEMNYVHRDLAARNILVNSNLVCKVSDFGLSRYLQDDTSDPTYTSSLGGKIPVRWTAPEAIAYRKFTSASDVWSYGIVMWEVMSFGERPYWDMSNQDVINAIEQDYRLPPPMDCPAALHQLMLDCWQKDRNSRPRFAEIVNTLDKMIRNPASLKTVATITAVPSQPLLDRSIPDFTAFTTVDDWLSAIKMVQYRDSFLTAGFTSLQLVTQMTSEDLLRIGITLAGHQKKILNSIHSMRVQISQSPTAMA

[6] = biological target: SSTK/TSSK6 (Homo sapiens, UniProt Q9BXA6); assay: biochemical; details: read-out: % enzyme activity, 1 μM; Run 1, Run 2
[7] = biological target: MAPKAPK3 (Homo sapiens, UniProt Q16644); assay: biochemical; details: read-out: % enzyme activity, 1 μM; Run 1, Run 2
[8] = biological target: MYO3A (Homo sapiens, UniProt Q8NEV4); details: 1 μM; Run 1, Run 2
[9] = biological target: HIPK3 (Homo sapiens, UniProt Q9H422); details: 1 μM; Run 1, Run 2
[10] = biological target: T2, MYO3b (Homo sapiens, UniProt Q8WXR4); details: 1 μM; Run 1, Run 2
T2 sequence (Q8WXR4 1-1341): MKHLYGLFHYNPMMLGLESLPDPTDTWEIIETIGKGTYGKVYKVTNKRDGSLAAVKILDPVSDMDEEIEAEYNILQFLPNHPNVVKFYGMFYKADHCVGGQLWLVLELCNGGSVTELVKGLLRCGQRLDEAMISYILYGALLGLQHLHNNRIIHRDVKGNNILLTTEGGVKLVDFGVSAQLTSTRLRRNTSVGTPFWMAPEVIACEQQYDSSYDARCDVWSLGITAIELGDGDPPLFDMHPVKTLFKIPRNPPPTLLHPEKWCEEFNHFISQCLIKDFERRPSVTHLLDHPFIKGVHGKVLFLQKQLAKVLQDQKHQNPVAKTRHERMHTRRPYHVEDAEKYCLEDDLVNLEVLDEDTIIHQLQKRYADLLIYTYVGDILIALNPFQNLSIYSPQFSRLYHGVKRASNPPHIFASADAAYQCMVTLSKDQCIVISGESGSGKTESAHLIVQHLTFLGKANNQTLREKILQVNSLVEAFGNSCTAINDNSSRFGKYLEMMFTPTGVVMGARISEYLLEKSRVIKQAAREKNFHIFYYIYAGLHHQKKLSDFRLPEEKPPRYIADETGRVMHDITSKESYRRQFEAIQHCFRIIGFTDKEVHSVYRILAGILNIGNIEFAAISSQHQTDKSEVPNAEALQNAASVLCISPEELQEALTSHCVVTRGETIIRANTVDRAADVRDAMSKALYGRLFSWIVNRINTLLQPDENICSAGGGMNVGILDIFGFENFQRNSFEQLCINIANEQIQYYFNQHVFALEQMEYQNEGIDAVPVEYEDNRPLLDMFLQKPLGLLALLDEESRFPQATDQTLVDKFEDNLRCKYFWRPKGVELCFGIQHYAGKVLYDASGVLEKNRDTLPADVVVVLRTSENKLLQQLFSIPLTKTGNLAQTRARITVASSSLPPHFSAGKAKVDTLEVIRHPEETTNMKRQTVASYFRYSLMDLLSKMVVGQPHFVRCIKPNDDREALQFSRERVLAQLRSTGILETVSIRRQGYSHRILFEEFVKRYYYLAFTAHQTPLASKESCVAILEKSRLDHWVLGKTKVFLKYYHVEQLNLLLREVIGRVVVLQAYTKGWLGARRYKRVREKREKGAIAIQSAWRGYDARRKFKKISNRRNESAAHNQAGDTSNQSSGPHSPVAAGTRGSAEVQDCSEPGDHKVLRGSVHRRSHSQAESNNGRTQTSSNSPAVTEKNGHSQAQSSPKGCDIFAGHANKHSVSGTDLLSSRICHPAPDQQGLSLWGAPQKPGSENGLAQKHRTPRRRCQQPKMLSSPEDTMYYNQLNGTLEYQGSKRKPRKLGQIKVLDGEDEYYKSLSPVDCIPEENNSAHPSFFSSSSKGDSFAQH

[11] = biological target: PKA (Homo sapiens, UniProt P17612); assay: biochemical; details: read-out: % enzyme activity, 1 μM; Run 1, Run 2

HIPK3, sequence (Q9H422 whole entry): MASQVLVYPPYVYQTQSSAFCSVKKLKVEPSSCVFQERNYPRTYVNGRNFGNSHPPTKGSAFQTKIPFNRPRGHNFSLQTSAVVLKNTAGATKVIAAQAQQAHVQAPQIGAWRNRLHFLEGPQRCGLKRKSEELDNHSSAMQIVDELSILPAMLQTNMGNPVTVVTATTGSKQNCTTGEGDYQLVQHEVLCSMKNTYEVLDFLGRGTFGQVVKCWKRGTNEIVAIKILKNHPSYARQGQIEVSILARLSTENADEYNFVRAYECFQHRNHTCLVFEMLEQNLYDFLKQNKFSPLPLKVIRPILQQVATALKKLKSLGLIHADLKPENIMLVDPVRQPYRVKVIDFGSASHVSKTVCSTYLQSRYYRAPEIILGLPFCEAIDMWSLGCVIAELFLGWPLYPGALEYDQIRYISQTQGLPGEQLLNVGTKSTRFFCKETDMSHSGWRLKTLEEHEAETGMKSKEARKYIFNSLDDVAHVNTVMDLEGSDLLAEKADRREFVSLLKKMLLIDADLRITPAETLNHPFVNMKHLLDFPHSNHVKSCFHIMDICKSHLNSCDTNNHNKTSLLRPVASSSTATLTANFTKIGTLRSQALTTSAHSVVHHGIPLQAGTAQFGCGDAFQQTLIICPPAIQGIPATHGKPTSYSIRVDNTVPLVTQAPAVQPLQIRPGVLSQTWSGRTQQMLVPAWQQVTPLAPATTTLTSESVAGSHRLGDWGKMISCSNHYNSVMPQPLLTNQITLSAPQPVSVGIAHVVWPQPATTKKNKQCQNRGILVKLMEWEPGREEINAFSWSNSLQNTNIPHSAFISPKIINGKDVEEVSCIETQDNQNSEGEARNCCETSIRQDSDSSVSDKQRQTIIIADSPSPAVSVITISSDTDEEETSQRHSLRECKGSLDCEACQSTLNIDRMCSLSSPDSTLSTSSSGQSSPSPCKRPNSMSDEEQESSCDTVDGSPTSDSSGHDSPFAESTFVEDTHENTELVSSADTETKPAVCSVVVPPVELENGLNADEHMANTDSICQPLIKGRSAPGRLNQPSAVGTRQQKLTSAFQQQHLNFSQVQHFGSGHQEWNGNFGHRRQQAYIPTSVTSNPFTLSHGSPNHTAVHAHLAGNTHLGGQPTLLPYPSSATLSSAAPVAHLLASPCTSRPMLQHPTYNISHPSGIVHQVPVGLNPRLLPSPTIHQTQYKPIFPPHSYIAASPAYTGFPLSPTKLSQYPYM
MAPKAPK3, sequence (Q16644 whole entry): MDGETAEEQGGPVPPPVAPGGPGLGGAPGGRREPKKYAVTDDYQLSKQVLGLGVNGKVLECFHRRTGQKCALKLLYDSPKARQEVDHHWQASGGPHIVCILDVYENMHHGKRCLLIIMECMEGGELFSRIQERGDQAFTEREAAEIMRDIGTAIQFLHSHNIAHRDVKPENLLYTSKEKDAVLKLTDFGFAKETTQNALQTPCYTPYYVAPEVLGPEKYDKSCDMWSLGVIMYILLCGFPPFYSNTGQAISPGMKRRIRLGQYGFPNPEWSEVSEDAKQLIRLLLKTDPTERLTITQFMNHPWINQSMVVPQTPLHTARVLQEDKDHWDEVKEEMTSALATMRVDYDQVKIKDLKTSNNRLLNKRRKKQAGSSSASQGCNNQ
MYO3A, sequence (Q8NEV4 whole entry): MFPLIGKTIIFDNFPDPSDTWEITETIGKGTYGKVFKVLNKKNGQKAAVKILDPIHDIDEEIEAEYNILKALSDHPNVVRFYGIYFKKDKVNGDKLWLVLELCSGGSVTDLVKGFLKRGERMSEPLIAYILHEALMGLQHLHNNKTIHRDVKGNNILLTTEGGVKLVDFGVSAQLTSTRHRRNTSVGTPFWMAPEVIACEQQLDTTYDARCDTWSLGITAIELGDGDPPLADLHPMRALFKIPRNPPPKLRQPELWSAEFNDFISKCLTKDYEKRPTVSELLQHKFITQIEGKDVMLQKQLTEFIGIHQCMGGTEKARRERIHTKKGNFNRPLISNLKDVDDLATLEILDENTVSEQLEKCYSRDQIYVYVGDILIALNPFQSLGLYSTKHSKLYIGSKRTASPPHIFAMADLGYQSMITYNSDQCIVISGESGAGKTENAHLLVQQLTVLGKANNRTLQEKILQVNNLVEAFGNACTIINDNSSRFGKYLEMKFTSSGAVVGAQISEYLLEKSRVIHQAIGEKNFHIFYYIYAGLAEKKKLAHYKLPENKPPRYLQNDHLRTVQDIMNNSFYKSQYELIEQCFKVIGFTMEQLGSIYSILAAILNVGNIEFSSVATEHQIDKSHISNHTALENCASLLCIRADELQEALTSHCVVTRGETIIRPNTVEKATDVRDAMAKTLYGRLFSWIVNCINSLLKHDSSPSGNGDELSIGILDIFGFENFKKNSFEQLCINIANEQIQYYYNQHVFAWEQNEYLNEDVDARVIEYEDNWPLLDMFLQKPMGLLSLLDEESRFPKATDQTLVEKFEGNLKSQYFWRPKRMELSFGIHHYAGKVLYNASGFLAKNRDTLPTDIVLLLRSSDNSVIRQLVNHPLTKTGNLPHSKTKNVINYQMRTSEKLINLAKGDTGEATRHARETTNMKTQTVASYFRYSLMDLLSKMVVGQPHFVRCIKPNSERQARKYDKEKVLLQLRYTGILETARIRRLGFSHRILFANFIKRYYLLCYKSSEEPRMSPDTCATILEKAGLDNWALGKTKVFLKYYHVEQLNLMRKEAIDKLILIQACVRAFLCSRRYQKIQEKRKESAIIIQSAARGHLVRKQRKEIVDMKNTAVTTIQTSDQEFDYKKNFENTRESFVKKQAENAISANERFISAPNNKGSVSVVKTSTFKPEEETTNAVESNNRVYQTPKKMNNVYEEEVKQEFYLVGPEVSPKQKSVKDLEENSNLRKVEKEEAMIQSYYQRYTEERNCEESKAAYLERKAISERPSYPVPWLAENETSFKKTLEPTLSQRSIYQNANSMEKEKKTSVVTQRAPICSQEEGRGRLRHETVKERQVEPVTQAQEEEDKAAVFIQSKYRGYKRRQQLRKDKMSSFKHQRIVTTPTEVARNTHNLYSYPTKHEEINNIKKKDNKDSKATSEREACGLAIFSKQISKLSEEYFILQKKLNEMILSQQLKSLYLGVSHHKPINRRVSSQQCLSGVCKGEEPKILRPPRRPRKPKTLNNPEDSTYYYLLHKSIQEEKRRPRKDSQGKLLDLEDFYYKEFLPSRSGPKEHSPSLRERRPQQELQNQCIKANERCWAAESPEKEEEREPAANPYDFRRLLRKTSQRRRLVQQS
SSTK/TSSK6, sequence (Q9BXA6 whole entry): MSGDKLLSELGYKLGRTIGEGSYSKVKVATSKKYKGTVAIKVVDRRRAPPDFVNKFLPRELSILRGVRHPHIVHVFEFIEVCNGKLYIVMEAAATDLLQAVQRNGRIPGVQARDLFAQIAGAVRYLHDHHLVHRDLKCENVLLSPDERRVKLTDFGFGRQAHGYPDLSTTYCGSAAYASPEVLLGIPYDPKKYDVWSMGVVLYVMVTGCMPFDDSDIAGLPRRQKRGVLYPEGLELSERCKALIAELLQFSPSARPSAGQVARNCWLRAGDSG
CLK1, sequence (P49759 whole entry): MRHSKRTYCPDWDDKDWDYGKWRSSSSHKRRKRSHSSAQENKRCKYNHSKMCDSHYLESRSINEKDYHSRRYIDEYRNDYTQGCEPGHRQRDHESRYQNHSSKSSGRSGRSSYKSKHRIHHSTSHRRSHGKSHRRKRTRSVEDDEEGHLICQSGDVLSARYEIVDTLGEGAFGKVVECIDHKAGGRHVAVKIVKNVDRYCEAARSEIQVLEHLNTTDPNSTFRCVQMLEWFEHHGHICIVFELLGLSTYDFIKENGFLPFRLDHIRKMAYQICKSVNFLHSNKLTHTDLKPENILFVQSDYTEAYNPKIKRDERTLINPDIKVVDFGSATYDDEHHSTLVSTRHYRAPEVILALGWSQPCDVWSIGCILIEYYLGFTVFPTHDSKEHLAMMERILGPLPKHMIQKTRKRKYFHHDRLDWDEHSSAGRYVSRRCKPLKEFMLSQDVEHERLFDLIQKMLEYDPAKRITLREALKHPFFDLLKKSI

Structure (SMILES) | % enzyme activity [1] | remaining activity at 1 µM [2] | % enzyme activity at 1 μM [3] | % enzyme activity [4] | % enzyme activity [5] | remaining activity at 1 µM [6] | remaining activity at 1 µM [7] | % enzyme activity [8] | % enzyme activity [9] | % enzyme activity [10] | remaining activity at 1 µM [11]
COc1cc(-c2cncc(-c3ccc(N4C[C@@H](C)N(C)[C@@H](C)C4)cc3)c2C)cc(F)c1C(N)=O [Compound 26c, 2-Fluoro-6-methoxy-4-(4-methyl-5-(4-((3R,5S)-3,4,5-trimethylpiperazin-1-yl)phenyl)pyridin-3-yl)benzamide] | 86.91% | 97.9% | 104% and 100% | 88.53% | 89.37% | 98.2% | 97.2% | 94.68% | 89.08% | 85.13% | 96.9%
COc1cc(-c2cncc(-c3ccc(N4CCN(C)CC4)cc3)c2C)cc(F)c1C(N)=O [Compound 26a, 2-Fluoro-6-methoxy-4-(4-methyl-5-(4-(4-methylpiperazin-1-yl)phenyl)pyridin-3-yl)benzamide] | 94.42% | 96.2% | 89.1% and 88.4% | 93.78% | 91.99% | 110% | 99.5% | 81.86% | 97.73% | 81.31% | 97.9%
